From publication PMC3375117 (International Microbiology, 2011)
Values after ≈ are worked out from the molar mass of the structure shown. Read-outs that look alike come from different tables or passages of the source.

Legend:
Vero cells [1] = conditions: cited from earlier work
[2] = test system: amastigotes of L. donovani (LD-1S/MHOM/SD/00-strain 1S); conditions: cited from earlier work
Vero cells [3] = assay: Vero cell toxicity; conditions: Vero cells versus L. donovani
[4] = test system: P. falciparum (K1, multidrug-resistant strain); conditions: cited from earlier work
[5] = test system: chloroquine-resistant strain (Indocrina W2) of Plasmodium falciparum; conditions: cited from earlier work
[6] = test system: human breast cancer cell line MCF-7; conditions: read-out: IC50 cytotoxic activity MCF-7; cited from earlier work
[7] = test system: recombinant Tulahuen clone C4 of T. cruzi; conditions: read-out: IC50 T. cruzi; cited from earlier work
African trypanosomiasis = conditions: mice; cited from earlier work
Vero cells [8] = test system: Vero cells
T. cruzi = conditions: cited from earlier work
[9] = test system: amastigotes of L. donovani (LD-1S/MHOM/SD/00-strain 1S); assay: In vitro antiparasitic assay: Leishmania; type: cell-based; conditions: read-out: typical IC50 response of L. donovani
[10] = test system: Leishmania promastigote and amastigote forms; conditions: cited from earlier work
[11] = read-out: cytotoxicity to Vero cells IC50
[12] = read-out: IC50 growth of Leishmania donovani in the amastigote form
[13] = read-out: IC50 P. falciparum K1 strain, in vitro
[14] = read-out: IC50 P. falciparum K1, K1, multidrug-resistant strain

Molecule: O=C1C=C[C@]23Oc4ccc(O)c5c4[C@](CCC5=O)(Oc4cccc1c42)O3 [Compound 6, preussomerin EG^1]
- IC50 (Vero cells [1]; [11]): 150 µM
- IC50 [2, 12]: 0.12 µM
- therapeutic window: times greater anti-leishmanial activity than cytotoxicity (Vero cells [3]): 12 times

Molecule: COc1cc2c3c(oc2c(C)c1O)C(=O)C(C)=CC3=O [xylariaquinone A]
- IC50 [4, 13]: 6.68 µM

Molecule: COC1=CC(=O)C(Cl)=C(C)C1=O [2-chloro-5-methoxy-3-methylcyclohexa-2,5-diene-1,4-dione]
- IC50 [4, 13]: 1.84 µM

Molecule: COc1c(CC(C)O)c2c3c(CC(C)O)c(OC)c(=O)c4c(O)cc5c(c6c(cc(O)c(c1=O)c62)OCO5)c43 (stereo not shown) [Compound 7, cercosporin]
- IC50 ([5]; read-out: IC50 P. falciparum): 1.03 µM
- IC50 [6]: 4.68 µM
- IC50 [7]: 1.08 µM
- IC50 ([2]; read-out: IC50 L. donovani): 0.46 µM

Molecule: CCC[C@H]1C[C@H]2OC(=O)c3c(cc(OC)c(OC)c3O)[C@H]2O1 [Monocerin]
- IC50 [4, 14]: 0.68 µM

Molecule: C/C(=C\Cc1c(O)c(Cl)c(C)c(C=O)c1O)CC/C=C(\C)[C@@H]1CC(=O)C(C)(C)O1 [Ascofuranone]
- therapeutic effects for African trypanosomiasis (African trypanosomiasis): good therapeutic effects

Molecule: palmarumycin CP18 [Compound 3]
- therapeutic window: times greater anti-leishmanial activity than cytotoxicity (Vero cells [8]): 245 times
- IC50 (Vero cells [1]): 152 µM
- IC50 [2, 12]: 0.62 µM

Molecule: O=C1CCC2(Oc3cccc4cccc(c34)O2)c2cccc(O)c21 [Compound 1, Palmarumycin CP2]
- IC50 (Vero cells [1]; [11]): 162 µM
- IC50 [2, 12]: 3.93 µM
- therapeutic window: times greater anti-leishmanial activity than cytotoxicity (Vero cells [3]): 41 times

Molecule: palmarumycin CP19 [Compound 4]
- therapeutic window: times greater anti-leishmanial activity than cytotoxicity (Vero cells [8]): 18 times
- IC50 (Vero cells [1]): 140 µM
- IC50 [2, 12]: 11.6 µM

Molecule: COc1cccc2oc3c(Cl)c(O)c([C@H]4CCC[C@@H](C)O4)c(O)c3c(=O)c12 [Chaetoxanthone C]
- IC50 T. cruzi (T. cruzi): 1.5 mg/L (≈ 3.84 µM)

Molecule: C[C@@H]1[C@H](O)[C@@H](C)/C=C/C=C/C=C/C=C/C=C/C=C/C=C/[C@H](O[C@@H]2O[C@H](C)[C@@H](O)[C@H](N)[C@@H]2O)C[C@@H]2O[C@](O)(C[C@@H](O)C[C@@H](O)[C@H](O)CC[C@@H](O)C[C@@H](O)CC(=O)O[C@H]1C)C[C@H](O)[C@H]2C(=O)O [Amphotericin B]
- IC50 [9]: 0.07 to 0.12 mg/L (≈ 0.0758 to 0.13 µM)

Molecule: CC[C@@H](O)[C@@H]1C[C@@H]2OC(=O)c3c(cc(OC)c(OC)c3O)[C@@H]2O1 [11-hydroxymonocerin]
- IC50 [4, 14]: 7.7 µM

Molecule: CCN(CC)CCCC(C)Nc1ccnc2cc(Cl)ccc12 (stereo not shown) [Chloroquine, reference compound]
- IC50 ([5]; positive control): 0.08 to 0.1 µM

Molecule: O=C1CCC2(Oc3cccc4cccc(c34)O2)c2c(O)ccc(O)c21 [Compound 2, palmarumycin CP17]
- IC50 (Vero cells [1]; [11]): 174 µM
- IC50 [2, 12]: 1.34 µM
- therapeutic window: times greater anti-leishmanial activity than cytotoxicity (Vero cells [3]): 130 times

Molecule: Oc1cccc2c1[C@@H](O)CCC21Oc2cccc3cccc(c23)O1 [Compound 5, CJ-12,371]
- IC50 (Vero cells [1]; [11]): 9 µM
- IC50 [2, 12]: 8.4 µM
- therapeutic window: times greater anti-leishmanial activity than cytotoxicity (Vero cells [3]): 75 times

Molecule: CC(C)C[C@@H](C(=O)N[C@H]1COC(=O)[C@H](Cc2ccccc2)N(C)C(=O)[C@H](CC(C)C)N(C)C(=O)[C@@H](NC(=O)[C@H](CC(C)C)N(C)C)COC(=O)[C@H](Cc2ccccc2)N(C)C(=O)[C@H](CC(C)C)N(C)C1=O)N(C)C [IB-01212]
- leishmanicidal activity [10]: low micromolar concentrations
